{"source": "patent US20230201203A1", "about": "“METHODS OF TREATMENT USING A[…] PHARMACEUTICAL FORMULATIONS COMPRISING ANTIFOLATES” (EMPHASCIENCE, INC., priority 2020, published 2023)", "assay": "in vitro", "settings": "human"}
{"smiles": "Nc1nc2[nH]cc(CCc3ccc(C(=O)N[C@@H](CCC(=O)O)C(=O)O)cc3)c2c(=O)[nH]1", "note": "[pemetrexed]", "values": [{"measurement": "CC50", "result": "≥ 74", "unit": "µg/mL"}]}
